Article PMC9416257, “Design, Synthesis and Preliminary Evaluation of the Cytotoxicity and Antibacterial Activity of Novel Triphenylphosphonium Derivatives of Betulin” (Molecules, 2022)

What was measured:
[1] = tested on: HCT 116 (colorectal carcinoma cell line); test: Cytotoxicity, CCK-8 cell viability assay; type: cell-based; settings: Homo sapiens, HCT-116, 24 h, read-out: Activity IC50, HCT 116
Protocol: (§1) The obtained new molecular hybrids of BN were screened in order to initially investigate their cytotoxicity as well as examine the relationships between the structure and biological effect. The common element of all of the tested compounds was the presence of a lipophilic moiety (CH2)nTPP^⊕ (n = 3, 4, 5). The research was conducted on two groups of compounds: 28-TPP^⊕ BN and 3,28-bisTPP^⊕ BN. Their cytotoxicity was investigated on two cancer cell lines: HCT 116 (colorectal carcinoma cell line) and MCF-7 (human breast adenocarcinoma cell line). The proliferation of tumor cells treated with the tested compounds (7 and 9) at 12.5–3.125 µM concentrations were determined after 24 h of incubation. Additionally, all compounds were tested against the NHDF cell line (Normal Human Dermal Fibroblast cells) to assess their safety. Half-maximal inhibitory concentrations (IC50) of triphenylphosphonium analogs of BN were determined using a CCK-8 assay and are summarized in Table 2.
(§2) The human colorectal carcinoma cell line (HCT 116) and the human breast adenocarcinoma cell line (MCF-7) cells were purchased from the American Type Culture Collection (ATCC, Manassas, VA, USA). The Normal Human Dermal Fibroblast (NHDF) cells were purchased from Lonza (Dermal Fibroblasts, Lonza, Poland). All cells were cultured under standard conditions at 37 °C in a humidified atmosphere at 5% CO2 in DMEM/F12 medium (PAA) supplemented with 10% of heat-inactivated fetal bovine serum (FBS, EURx, Gdansk, Poland) and antibiotics (penicillin/streptomycin).
(§3) Cells were seeded at 7500 (HCT 116) or 10,000 (MCF-7, NHDF) cells/well in 96-well plates. After 24 h, the culture medium was removed and 100 µL of fresh medium containing the test compounds at 0–12.5 µM concentrations was added to the culture wells. The test compounds were dissolved in DMSO to obtain a stock solution with a concentration of 5 mM (betulin) or 10 mM (other test compounds). The stock solution was diluted with the fresh culture medium to the desired concentration. Controls were cells grown in medium without the addition of test compounds. After 24 h of incubation with the test compounds, 10 µL of CCK-8 reagent (Bimake, Houston, TX, USA) was added to each well. After 2 h, the absorbance of the samples was measured at a wavelength of 450 nm using a microplate reader (Epoch, BioTek Instruments, Winooski, VT, USA). The determinations were conducted in at least three biological replications (each biological replication contained 3 technical replications). The cell viability rate was calculated using CalcuSyn software (version 2.0, Biosoft, Cambridge, UK).

[2] = tested on: MCF-7 (human breast adenocarcinoma cell line); test: Cytotoxicity, CCK-8 cell viability assay; type: cell-based; settings: MCF7, 24 h, read-out: Activity IC50, MCF-7
Protocol: as §1, §2
as §3, with “After 24 h, the culture medium was removed and 100 µL of fresh medium containing the test compounds at 0–12.5 µM concentrations was added to the culture wells.” left out

[3] = tested on: NHDF (Normal Human Dermal Fibroblast cells); test: Cytotoxicity, CCK-8 cell viability assay (safety on normal cells); type: cell-based; settings: 24 h, read-out: Activity IC50, NHDF
Protocol: as §1, §2, §3

[4] = tested on: S. aureus ATCC 25923; test: Antibacterial assay, optical density of culture in TSB; type: cell-based, Staphylococcus aureus; settings: 37 °C, 18 h
Protocol: (§4) Investigations were carried out using different concentrations of solutions from 25 to 250 µM. A 25 µM concentration of the tested derivatives was not enough to inhibit the growth of […]. When the concentration of analogs 7d–7f and 9a–9c increased to 200 µM, the growth of S. aureus ATCC 25923 and S. epidermidis ATCC 12228 was inhibited. Furthermore, the optical density of all compounds remained unchanged after 18 h of bacteria culture. In the case of analogs 7a–7c, the optical density values were between 0.9 and 2.2 when they were cultured with S. aureus ATCC 25923. The bacterial growth was slower compared to the control sample (TSB-culture medium). […] In the case of analog 7c, the optical density increased up to […] after 18 h of the sample culture with both kinds of Gram-positive bacteria. In contrast, the reference sample’s (TSB) optical density increased to 7.5 for S. aureus ATCC 25923, and 4.9 for S. epidermidis ATCC 12228 after 18 h of bacteria culture. […] All of the analog values of the measured optical density were similar to that of the reference sample (5.0–5.1, Table 3).
(§5) Antibacterial analysis was performed using the S. aureus ATCC 25923, S. epidermidis ATCC 12228, and Escherichia coli ATCC 25922 bacteria strains. The test compounds were dissolved in DMSO to obtain a stock solution with a concentration of 5 mM (betulin) or 10 mM (other test compounds). The stock solution was diluted with water to the desired concentration (25–250 µM). Then, 1 mL of the investigated solutions was mixed with 1 mL of culture medium (TSB, Biomaxima, Lublin, Poland) in a sterile glass tube. The initial concentration of bacteria was around 5 × 10^6 CFU/mL. The concentration of bacteria was measured using an optical densitometer before and after 18 h of bacteria culture in glass tubes at 37 °C (incubator POL-EKO, Wodzislaw Slaski, Poland). The investigations were repeated for three independent samples. The control sample was the culture medium without any supplementation.

[5] = tested on: S. epidermidis ATCC 12228; test: as above; type: cell-based, Staphylococcus epidermidis; settings: 37 °C, 18 h
Protocol: as §4, §5

[6] = tested on: Escherichia coli ATCC 25922; test: as above; type: cell-based; settings: 37 °C, 18 h; also: key: 0: no difference between samples after 18 h of bacteria culture (bacteria grow was inhibited); neg: negative results (analog BN did not inhibit bacteria growing)
Protocol: as §4, §5

| SMILES | IC50 [1] | IC50 [2] | IC50 [3] | Difference between optical density before and after culture, S. aureus ATCC 25923 ([4]; 200 μM) | Difference between optical density before and after culture, S. aureus ATCC 25923 ([4]; 250 μM) | Difference between optical density before and after culture, S. epidermidis ATCC 12228 ([5]; 200 μM) | Difference between optical density before and after culture, S. epidermidis ATCC 12228 ([5]; 250 μM) | Difference between optical density before and after culture, Escherichia coli ATCC 25922 ([6]; 200 μM) | Difference between optical density before and after culture, Escherichia coli ATCC 25922 ([6]; 250 μM) |
| --- | --- | --- | --- | --- | --- | --- | --- | --- | --- |
| C=C(C)[C@@H]1CC[C@]2(COC(=O)CCC(=O)OCCCC[P+](c3ccccc3)(c3ccccc3)c3ccccc3)CC[C@]3(C)C(CCC4[C@@]5(C)CC[C@H](OC(=O)CCC(=O)OCCCC[P+](c6ccccc6)(c6ccccc6)c6ccccc6)C(C)(C)C5CC[C@]43C)C12 (stereo partly drawn) [9b, 3,28-O,O’-Bis(3’-(4"-triphenylphosphoniobutyloxycarbonyl)propanoyl)betulin bromide] | 7.97 ± 0.51 µM | 23.6 ± 0.33 µM | 8.02 ± 0.35 µM | 0 | 0 | 0 | 0 | neg | neg |
| C=C(C)[C@@H]1CC[C@]2(COC(=O)CCC(=O)OCCC[P+](c3ccccc3)(c3ccccc3)c3ccccc3)CC[C@]3(C)C(CCC4[C@@]5(C)CC[C@H](OC(=O)CCC(=O)OCCC[P+](c6ccccc6)(c6ccccc6)c6ccccc6)C(C)(C)C5CC[C@]43C)C12 (stereo partly drawn) [9a, 3,28-O,O′-Bis(3’-(3"-triphenylphosphoniopropyloxycarbonyl)propanoyl)betulin bromide] | 6.32 ± 0.27 µM | 31.3 ± 3.02 µM | 5.91 ± 0.33 µM | 0 | 0 | 0 | 0 | neg | neg |
